Source: ChEMBL document CHEMBL5291721, “A preclinical secondary pharmacology resource illuminates target-adverse drug reaction associations of marketed drugs” (Nat Commun, 2023)

Assays:
[1] = molecular target: Vasopressin V2 receptor (Homo sapiens, UniProt P30518)
[2] = molecular target: T1, B2 bradykinin receptor (Homo sapiens, UniProt P30411)
T1 sequence (P30411 whole entry): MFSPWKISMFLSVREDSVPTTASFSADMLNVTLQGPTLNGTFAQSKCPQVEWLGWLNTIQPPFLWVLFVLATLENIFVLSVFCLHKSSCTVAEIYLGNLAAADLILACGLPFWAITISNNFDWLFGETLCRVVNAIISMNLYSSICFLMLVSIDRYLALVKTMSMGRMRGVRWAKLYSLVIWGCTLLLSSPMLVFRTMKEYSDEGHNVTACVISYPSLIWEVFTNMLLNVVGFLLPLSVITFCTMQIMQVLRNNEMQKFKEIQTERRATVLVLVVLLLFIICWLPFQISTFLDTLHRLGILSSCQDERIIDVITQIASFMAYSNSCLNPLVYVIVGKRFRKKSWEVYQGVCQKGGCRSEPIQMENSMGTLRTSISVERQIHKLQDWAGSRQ

[3] = molecular target: T2, Alpha-2A adrenergic receptor (Homo sapiens, UniProt P08913); format: functional, cell-based
T2 sequence (P08913 whole entry): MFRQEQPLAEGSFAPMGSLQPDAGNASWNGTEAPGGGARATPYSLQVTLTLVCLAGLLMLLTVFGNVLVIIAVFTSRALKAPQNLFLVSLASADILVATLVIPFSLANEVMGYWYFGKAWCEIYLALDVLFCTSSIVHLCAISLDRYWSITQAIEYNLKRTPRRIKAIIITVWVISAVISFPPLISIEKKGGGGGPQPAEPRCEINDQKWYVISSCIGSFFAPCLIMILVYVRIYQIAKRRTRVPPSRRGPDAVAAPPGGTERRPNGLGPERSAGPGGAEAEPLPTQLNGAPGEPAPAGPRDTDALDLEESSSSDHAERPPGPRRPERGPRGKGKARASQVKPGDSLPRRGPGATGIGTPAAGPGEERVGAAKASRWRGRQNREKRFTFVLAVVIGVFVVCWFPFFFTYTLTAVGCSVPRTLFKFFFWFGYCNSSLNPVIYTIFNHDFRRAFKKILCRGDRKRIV

[4] = molecular target: 5-hydroxytryptamine receptor 2B (Homo sapiens, UniProt P41595); format: functional, cell-based
[5] = molecular target: Muscarinic acetylcholine receptor M3 (Homo sapiens, UniProt P20309)
[6] = molecular target: T3, Alpha-2C adrenergic receptor (Homo sapiens, UniProt P18825); format: functional
T3 sequence (P18825 whole entry): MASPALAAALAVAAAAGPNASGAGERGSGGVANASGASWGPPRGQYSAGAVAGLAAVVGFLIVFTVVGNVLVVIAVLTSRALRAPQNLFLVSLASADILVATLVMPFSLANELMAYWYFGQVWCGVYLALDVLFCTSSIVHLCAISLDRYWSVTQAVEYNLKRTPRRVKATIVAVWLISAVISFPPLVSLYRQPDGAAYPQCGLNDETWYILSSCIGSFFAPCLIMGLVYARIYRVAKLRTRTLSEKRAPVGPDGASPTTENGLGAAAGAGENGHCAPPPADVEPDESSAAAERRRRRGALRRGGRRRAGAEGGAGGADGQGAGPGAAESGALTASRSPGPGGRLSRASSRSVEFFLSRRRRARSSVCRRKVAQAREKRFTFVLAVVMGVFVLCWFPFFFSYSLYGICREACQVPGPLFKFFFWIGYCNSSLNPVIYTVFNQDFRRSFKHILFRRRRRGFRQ

[7] = molecular target: T4, 5-hydroxytryptamine receptor 1A (Homo sapiens, UniProt P08908); format: functional, cell-based
T4 sequence (P08908 whole entry): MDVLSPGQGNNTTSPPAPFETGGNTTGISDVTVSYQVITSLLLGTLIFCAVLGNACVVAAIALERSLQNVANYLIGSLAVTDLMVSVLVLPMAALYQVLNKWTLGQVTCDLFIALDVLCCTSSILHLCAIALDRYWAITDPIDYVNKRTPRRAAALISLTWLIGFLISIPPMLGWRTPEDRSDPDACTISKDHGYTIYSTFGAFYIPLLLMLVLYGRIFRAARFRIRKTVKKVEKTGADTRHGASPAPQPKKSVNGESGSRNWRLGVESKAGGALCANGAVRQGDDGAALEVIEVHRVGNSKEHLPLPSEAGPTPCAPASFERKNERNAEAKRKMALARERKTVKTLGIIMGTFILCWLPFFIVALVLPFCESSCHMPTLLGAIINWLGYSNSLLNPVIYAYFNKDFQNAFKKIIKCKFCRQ

[8] = molecular target: 3',5'-cyclic-AMP phosphodiesterase 4D (Homo sapiens, UniProt Q08499); format: functional
[9] = molecular target: T5, Glucocorticoid receptor (Homo sapiens, UniProt P04150)
T5 sequence (P04150 whole entry): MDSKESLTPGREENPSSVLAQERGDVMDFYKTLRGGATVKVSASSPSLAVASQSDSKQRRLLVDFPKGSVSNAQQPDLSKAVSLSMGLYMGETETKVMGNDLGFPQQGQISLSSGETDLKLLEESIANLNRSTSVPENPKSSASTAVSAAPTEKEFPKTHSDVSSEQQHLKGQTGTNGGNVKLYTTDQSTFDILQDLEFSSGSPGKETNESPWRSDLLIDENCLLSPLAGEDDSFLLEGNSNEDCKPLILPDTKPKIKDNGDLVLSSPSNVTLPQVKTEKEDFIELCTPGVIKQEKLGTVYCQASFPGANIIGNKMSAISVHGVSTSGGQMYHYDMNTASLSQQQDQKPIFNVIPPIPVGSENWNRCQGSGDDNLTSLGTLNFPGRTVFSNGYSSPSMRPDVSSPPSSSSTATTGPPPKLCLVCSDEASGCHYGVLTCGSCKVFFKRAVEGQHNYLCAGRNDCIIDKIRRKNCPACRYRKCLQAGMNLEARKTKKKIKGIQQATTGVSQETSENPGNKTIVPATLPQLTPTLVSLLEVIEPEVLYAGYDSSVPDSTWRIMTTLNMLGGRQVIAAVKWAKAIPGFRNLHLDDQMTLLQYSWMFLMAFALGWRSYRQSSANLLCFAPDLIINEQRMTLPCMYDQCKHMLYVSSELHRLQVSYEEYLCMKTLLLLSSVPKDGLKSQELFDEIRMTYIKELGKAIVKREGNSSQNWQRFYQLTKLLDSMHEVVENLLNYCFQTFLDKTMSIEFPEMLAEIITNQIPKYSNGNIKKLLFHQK

[10] = molecular target: Histamine H2 receptor (Homo sapiens, UniProt P25021); format: functional, cell-based
[11] = molecular target: T6, Cannabinoid receptor 1 (Homo sapiens, UniProt P21554); format: functional, cell-based
[12] = molecular target: T6, Cannabinoid receptor 1; format: functional, cell-based; remark: listed apart in the source
Further: assay procedure not described here.

Histamine H2 receptor, sequence (P25021 whole entry): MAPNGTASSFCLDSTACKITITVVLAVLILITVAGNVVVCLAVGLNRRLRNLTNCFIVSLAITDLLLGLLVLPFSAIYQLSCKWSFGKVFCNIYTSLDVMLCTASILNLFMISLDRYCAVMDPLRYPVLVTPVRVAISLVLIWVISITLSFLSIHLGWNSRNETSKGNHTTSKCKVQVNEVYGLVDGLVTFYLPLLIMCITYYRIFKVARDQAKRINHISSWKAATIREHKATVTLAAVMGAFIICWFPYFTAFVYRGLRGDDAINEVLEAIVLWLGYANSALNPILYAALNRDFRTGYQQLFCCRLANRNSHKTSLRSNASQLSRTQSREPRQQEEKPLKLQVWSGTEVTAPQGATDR
Muscarinic acetylcholine receptor M3, sequence (P20309 whole entry): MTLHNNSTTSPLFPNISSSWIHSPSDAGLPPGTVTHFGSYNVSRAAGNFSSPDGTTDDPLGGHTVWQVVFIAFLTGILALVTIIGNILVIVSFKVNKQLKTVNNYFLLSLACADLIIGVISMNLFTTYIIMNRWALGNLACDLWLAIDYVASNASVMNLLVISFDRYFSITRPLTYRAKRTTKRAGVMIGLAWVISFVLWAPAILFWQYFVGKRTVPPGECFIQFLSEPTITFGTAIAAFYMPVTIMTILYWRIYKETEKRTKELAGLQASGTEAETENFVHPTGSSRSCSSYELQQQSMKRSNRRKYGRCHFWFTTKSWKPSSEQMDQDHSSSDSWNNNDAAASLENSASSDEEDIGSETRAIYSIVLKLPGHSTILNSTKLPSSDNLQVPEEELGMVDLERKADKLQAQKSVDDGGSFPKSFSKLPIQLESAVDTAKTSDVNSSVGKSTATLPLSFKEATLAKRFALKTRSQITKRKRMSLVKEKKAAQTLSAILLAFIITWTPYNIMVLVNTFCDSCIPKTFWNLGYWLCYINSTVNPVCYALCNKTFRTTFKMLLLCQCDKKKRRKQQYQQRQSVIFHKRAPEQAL
Vasopressin V2 receptor, sequence (P30518 whole entry): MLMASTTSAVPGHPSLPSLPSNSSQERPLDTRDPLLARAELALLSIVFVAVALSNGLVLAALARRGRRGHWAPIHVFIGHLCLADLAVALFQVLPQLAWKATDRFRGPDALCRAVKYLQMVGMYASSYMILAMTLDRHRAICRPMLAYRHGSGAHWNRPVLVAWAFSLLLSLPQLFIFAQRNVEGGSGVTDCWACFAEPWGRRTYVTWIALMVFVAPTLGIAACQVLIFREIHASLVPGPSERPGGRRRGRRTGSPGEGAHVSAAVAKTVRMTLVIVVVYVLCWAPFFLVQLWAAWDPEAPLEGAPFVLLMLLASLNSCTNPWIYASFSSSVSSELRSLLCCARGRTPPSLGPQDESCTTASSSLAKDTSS
3',5'-cyclic-AMP phosphodiesterase 4D, sequence (Q08499 whole entry): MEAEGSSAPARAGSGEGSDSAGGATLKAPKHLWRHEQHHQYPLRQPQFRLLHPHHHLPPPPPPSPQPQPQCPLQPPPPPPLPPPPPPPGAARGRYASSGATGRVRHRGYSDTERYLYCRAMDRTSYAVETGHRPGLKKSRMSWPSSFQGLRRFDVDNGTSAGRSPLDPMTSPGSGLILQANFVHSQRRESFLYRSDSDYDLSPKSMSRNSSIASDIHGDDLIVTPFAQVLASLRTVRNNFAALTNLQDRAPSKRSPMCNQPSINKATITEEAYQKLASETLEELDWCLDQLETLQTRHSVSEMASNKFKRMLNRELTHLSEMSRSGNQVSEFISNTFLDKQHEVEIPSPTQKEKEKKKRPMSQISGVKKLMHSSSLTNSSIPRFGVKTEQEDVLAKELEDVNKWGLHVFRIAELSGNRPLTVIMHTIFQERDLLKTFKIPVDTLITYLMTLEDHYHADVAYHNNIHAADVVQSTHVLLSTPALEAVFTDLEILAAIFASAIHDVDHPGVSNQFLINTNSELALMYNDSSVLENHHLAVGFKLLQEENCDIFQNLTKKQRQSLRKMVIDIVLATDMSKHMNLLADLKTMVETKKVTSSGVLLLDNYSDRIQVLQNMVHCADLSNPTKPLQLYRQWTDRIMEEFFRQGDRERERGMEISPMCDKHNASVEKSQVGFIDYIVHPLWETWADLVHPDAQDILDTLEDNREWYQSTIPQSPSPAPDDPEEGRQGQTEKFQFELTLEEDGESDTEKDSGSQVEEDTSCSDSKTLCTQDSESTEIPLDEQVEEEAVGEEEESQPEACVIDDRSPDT
5-hydroxytryptamine receptor 2B, sequence (P41595 whole entry): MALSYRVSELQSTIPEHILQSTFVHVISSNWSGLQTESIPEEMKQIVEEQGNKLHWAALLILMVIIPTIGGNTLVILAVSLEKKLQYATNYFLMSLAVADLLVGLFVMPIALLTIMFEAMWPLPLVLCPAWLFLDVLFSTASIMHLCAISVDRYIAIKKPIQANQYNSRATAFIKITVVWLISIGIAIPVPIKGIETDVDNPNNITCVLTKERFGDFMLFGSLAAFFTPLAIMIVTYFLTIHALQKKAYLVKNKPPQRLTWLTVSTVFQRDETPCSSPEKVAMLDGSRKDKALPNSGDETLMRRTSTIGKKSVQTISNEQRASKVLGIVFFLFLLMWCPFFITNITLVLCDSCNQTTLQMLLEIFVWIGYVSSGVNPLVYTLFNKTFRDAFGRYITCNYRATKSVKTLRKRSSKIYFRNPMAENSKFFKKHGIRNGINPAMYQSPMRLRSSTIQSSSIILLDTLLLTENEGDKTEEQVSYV
T6 sequence (P21554 whole entry): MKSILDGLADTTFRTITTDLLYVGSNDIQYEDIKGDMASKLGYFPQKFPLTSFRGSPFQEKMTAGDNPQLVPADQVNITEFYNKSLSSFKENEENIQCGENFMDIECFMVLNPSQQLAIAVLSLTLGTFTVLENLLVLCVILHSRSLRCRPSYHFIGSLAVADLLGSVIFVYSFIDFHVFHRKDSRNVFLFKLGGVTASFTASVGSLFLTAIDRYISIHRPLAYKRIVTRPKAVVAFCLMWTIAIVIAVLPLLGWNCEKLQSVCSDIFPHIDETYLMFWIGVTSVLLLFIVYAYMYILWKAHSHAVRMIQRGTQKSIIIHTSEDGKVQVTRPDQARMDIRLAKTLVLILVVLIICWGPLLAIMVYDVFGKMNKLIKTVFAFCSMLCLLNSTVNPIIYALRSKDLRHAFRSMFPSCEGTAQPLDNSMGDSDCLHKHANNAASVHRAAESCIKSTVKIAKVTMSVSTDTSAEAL

SMILES | AC50 [1] [µM] | AC50 [2] [µM] | AC50 [3] [µM] | AC50 [4] [µM] | AC50 [5] [µM] | AC50 [6] [µM] | AC50 [7] [µM] | AC50 [8] [µM] | AC50 [9] [µM] | AC50 [10] [µM] | AC50 [11] [µM] | AC50 [12] [µM]
CCC(CC)(CC(=O)Nc1cccc(/C=C/c2nc(C3CCC3)cs2)c1)C(=O)O | > 30 | > 30 | – | – | – | – | – | – | – | – | – | –
CCCCCNC(=N)N/N=C/c1c[nH]c2ccc(OC)cc12 [TEGASEROD] | 20.3 | > 30 | 5.65 | > 30 | > 30 | 0.771 | > 30 | 19 | > 30 | > 30 | – | –
O=[N+]([O-])O[C@@H]1CO[C@H]2[C@@H]1OC[C@@H]2O [ISOSORBIDE MONONITRATE] | > 30 | > 30 | > 10 | > 10 | > 10 | > 10 | > 10 | > 30 | > 30 | > 10 | – | –
CN(C)CC/C=C1\c2ccccc2CSc2ccccc21 [DOTHIEPIN] | > 30 | > 30 | 29 | > 30 | – | 9.8 | > 30 | > 30 | > 30 | > 30 | > 30 | > 30
CC[C@@H](C(N)=O)N1CCCC1=O | > 30 | > 30 | > 30 | > 30 | > 30 | > 30 | > 30 | > 30 | – | > 30 | > 30 | > 30
Cc1oc(=O)oc1CN1CCN(c2cc3c(cc2F)c(=O)c(C(=O)O)c2n3C(C)S2)CC1 (stereo unspecified) [PRULIFLOXACIN] | – | – | > 30 | > 30 | > 30 | > 30 | – | > 30 | – | > 30 | > 30 | > 30
COc1cc2nc(N3CCN(C(=O)c4ccco4)CC3)nc(N)c2cc1OC [PRAZOSIN] | > 30 | > 30 | – | > 10 | – | – | – | > 30 | > 30 | – | > 30 | > 30
NC1CCN(c2c(F)cc3c(=O)c(C(=O)O)cn(C4CC4)c3c2Cl)C1 (stereo unspecified) [CLINAFLOXACIN] | – | – | – | – | 250 | – | – | – | – | – | – | –
COc1ccccc1N1CCN(CC(O)COc2cccc3ccccc23)CC1 (stereo unspecified) [NAFTOPIDIL] | – | – | 3.7 | > 30 | > 30 | 0.2 | > 30 | > 30 | 8.9 | 1.3 | > 30 | > 30
CCOc1ccc(Cc2cc([C@@H]3O[C@H](CO)[C@@H](O)[C@H](O)[C@H]3O)ccc2Cl)cc1 [DAPAGLIFLOZIN] | > 30 | > 30 | – | – | > 30 | > 10 | – | > 30 | > 30 | – | – | –
O=[N+]([O-])c1cn2c(n1)OC[C@@H](OCc1ccc(OC(F)(F)F)cc1)C2 [PRETOMANID] | > 30 | > 30 | – | – | > 10 | > 10 | – | > 10 | – | – | – | –
COC1=C(OC)C(=O)C(C/C=C(\C)CC/C=C(\C)CC/C=C(\C)CC/C=C(\C)CC/C=C(\C)CC/C=C(\C)CC/C=C(\C)CC/C=C(\C)CC/C=C(\C)CCC=C(C)C)=C(C)C1=O [UBIDECARENONE] | – | – | > 30 | > 30 | > 30 | > 30 | > 30 | > 30 | – | > 30 | > 30 | > 30
CN(C)CCc1c[nH]c2ccc(C[C@H]3COC(=O)N3)cc12 [ZOLMITRIPTAN] | > 30 | > 30 | > 30 | > 30 | > 30 | > 30 | – | > 30 | > 30 | > 30 | > 30 | –
C=CCN1C[C@H](C(=O)N(CCCN(C)C)C(=O)NCC)C[C@@H]2c3cccc4[nH]cc(c34)C[C@H]21 [CABERGOLINE] | > 10 | > 10 | – | 0.189 | > 30 | 0.3 | 0.162 | > 30 | > 10 | 4.23 | > 30 | > 30
CCCC1O[C@@H]2C[C@H]3[C@@H]4CCC5=CC(=O)C=C[C@]5(C)[C@H]4[C@@H](O)C[C@]3(C)[C@]2(C(=O)CO)O1 (stereo partly specified) [BUDESONIDE] | > 10 | > 10 | > 10 | > 10 | – | > 10 | > 10 | > 30 | – | > 10 | – | –
CN1CCN(C2=Nc3ccccc3Sc3ccc(Cl)cc32)CC1 [CLOTHIAPINE] | – | – | > 30 | > 30 | 2 | 2.1 | > 30 | > 30 | – | > 30 | > 30 | –
Cc1cc(C)c(NC(=O)CN(CC(=O)O)CC(=O)O)c(C)c1Br [MEBROFENIN] | – | – | > 30 | > 30 | > 30 | > 30 | – | > 30 | – | > 30 | > 30 | > 30
CC[C@H]1CN2CCc3cc(OC)c(OC)cc3[C@@H]2C[C@@H]1C[C@H]1NCCc2cc(OC)c(OC)cc21 [EMETINE] | > 30 | > 30 | 1.2 | > 30 | – | 0.23 | > 30 | > 30 | > 30 | > 30 | > 30 | > 30
